Consider nine molecules from patent publication US20180243260A1, “METHODS OF TREATING COGNITIVE AND BEHAVIORAL IMPAIRMENT IN DOWN SYNDROME AND ALZHEIMERS DISEASE PATIENTS” (AVANTI BIOSCIENCES INC., priority 2016, published 2018).

Bounds are passed on as bounds.

The first experiment concerns the target T1, DYRK1A (Rattus norvegicus, UniProt Q63470).
T1 construct: 6x histidine tag (HT)
Description: DYRK1A ELISA non-radioactive kinase assay. It is filed as biochemical. The following applies: HT-PRD substrate, 100 μM ATP, 30 min at 30° C. As for the experimental part: Decant HT-PRD solution, wash the wells twice with Tris dilution buffer. Block each well with 150 μl BSA/PBST blocking buffer PBST (2% BSA in PBS with 0.25% Tween 20) for at least 1 hr at room temperature.
Decant the blocking solution and wash the wells 3-4 times with Tris dilution buffer. Perform DYRK1A phosphorylation in the well with 100 μl reaction buffer (25 mM HEPES, pH 7.4, 100 mM NaCl, 5 mM MgCl2, and 100 μM ATP) containing DYRK1A (eg. 5-10 ng purified HT-DYRK1A) and inhibitor, if necessary, for 30 min at 30° C. […] Use 80 μl of this mixture in the reaction will give final ATP concentration of 100 μM. ATP concentrations may be adjusted if necessary. • 2. Add 10 μl inhibitor. If the inhibitor is dissolved in DMSO, shake the plate gently for 1 min before adding kinase. • 3. Dilute DYRK1A in Tris dilution buffer to a concentration of 0.5 ng/l (prepare fresh every time). • 4. Initiate phosphorylation by adding 10 l DYRK1A to each well.
Decant the phosphorylation solution and wash the wells three times with PBST. Add 100 μl diluted antibody 3D3 (eg. 2˜3K dilution of 1.5 mg/ml stock in BSA blocking buffer) and incubate for 1 hr at room temperature.
Decant the primary antibody solution and wash the wells three times with PBST. Add 100 μl diluted AP-conjugated anti-mouse IgG (5K dilution of anti-mouse IgG-AP in BSA blocking buffer) and incubate for 1 hr at room temperature.
Color Development and Detection.
Decant the secondary antibody and wash the wells extensively (3-4 times) with AP buffer (10 mM Tris-HCl, pH 9.5, 10 mM NaCl, and 5 mM MgCl2). Add 100 μl p-nitrophenyl phosphate solution (1 mg/ml in AP buffer or 1 PNPP tablet per 5 ml 1× diethanolamine substrate buffer) and incubate the plate at 30° C. Yellow color should start appearing in a few minutes. OD at 405 nm usually can be read between 10-30 min.
(ELISA stands for enzyme-linked immunosorbent assay.)
As a reminder, the IC50 is the concentration at which inhibition is half-maximal. On to `Oc1cc(O)c2c(c1)O[C@H](c1cc(O)c(O)c(O)c1)[C@H](O)C2` [(2R,3R)-2-(3,4,5-trihydroxyphenyl)chroman-3,5,7-triol], for which the IC50 was over 100 µM.
On to `COc1c(O)cc([C@H]2Oc3cc(O)cc(O)c3C[C@H]2OC(=O)c2cc(O)c(O)c(O)c2)cc1O` [(2R,3R)-2-(3,5-dihydroxy-4-methoxyphenyl)-5,7-dihydroxychroman-3-yl 3,4,5-trihydroxybenzoate], for which the IC50 came to 5.8 µM.
As to `COc1c(O)cc(C(=O)O[C@@H]2Cc3c(O)cc(O)cc3O[C@@H]2c2cc(O)c(O)c(O)c2)cc1O` [(2R,3R)-5,7-dihydroxy-2-(3,4,5-trihydroxyphenyl)chroman-3-yl 3,5-dihydroxy-4-methoxybenzoate], the IC50 stood at 25.1 µM.
As to `Oc1cc(O)c2c(c1)O[C@@H](c1cc(O)c(O)c(O)c1)[C@H](O)C2` [(2S,3R)-2-(3,4,5-trihydroxyphenyl)chroman-3,5,7-triol], the IC50 is over 100 µM.
For the molecule `Oc1cc(O)c2c(c1)O[C@H](c1ccc(O)c(O)c1)[C@H](O)C2` [(2R,3R)-2-(3,4-dihydroxyphenyl)chroman-3,5,7-triol], the IC50 was over 100 µM.
Consider `O=C(O[C@@H]1Cc2c(O)cc(O)cc2O[C@H]1c1ccc(O)c(O)c1)c1cc(O)c(O)c(O)c1` [(2S,3R)-2-(3,4-dihydroxyphenyl)-5,7-dihydroxychroman-3-yl 3,4,5-trihydroxybenzoate], for which the half-inhibitory concentration (IC50) amounted to 0.18 µM.
As for `O=C(O[C@@H]1Cc2c(O)cc(O)cc2O[C@@H]1c1ccc(O)c(O)c1)c1cc(O)c(O)c(O)c1` [(2R,3R)-2-(3,4-dihydroxyphenyl)-5,7-dihydroxychroman-3-yl 3,4,5-trihydroxybenzoate], the IC50 worked out at 0.52 µM.
Take `Oc1cc(O)c2c(c1)O[C@@H](c1ccc(O)c(O)c1)[C@H](O)C2` [(2S,3R)-2-(3,4-dihydroxyphenyl)chroman-3,5,7-triol]: the IC50 is over 100 µM.

Another experiment has as its target DYRK1A (Homo sapiens, UniProt Q13627).
Test: not given
To be noted: non-ATP competitive DYRK1A inhibitor; Bain, J., et al., Biochem J 408 (2007); cited from earlier work.
`O=C(O[C@@H]1Cc2c(O)cc(O)cc2O[C@@H]1c1cc(O)c(O)c(O)c1)c1cc(O)c(O)c(O)c1` [EGCG, Epigallocatechin gallate]: the IC50 is 0.33 µM.

The test system of the next experiment is DS patients.
Test: not given
The following applies: randomized, double-blinded placebo-controlled study, De la Torre et al. 2014; cited from earlier work.
Take `O=C(O[C@@H]1Cc2c(O)cc(O)cc2O[C@@H]1c1cc(O)c(O)c(O)c1)c1cc(O)c(O)c(O)c1` [EGCG, Epigallocatechin gallate]: the “memory recognition, working memory and quality of life” value was “improved memory recognition, working memory and quality of life”.
